Test results published in BindingDB's records for doi:10.1021/jm00046a026 (Virginia Commonwealth University, 1994).

Test: Inhibition against delta receptor from displacement studies using 1.5 nM [3H]DPDPE in rhesus monkey cortex membrane

SMILES | Ki [nM]
CCCCCCCCCN1CC[C@]2(C)c3cc(O)ccc3CC1[C@@H]2C [(6S,11R)-6,11-Dimethyl-3-nonyl-1,2,3,4,5,6-hexahydro-2,6-methano-benzo[d]azocin-8-ol] | 464
CCCCCN1CC[C@@]2(C)c3cc(O)ccc3CC1[C@H]2C [(6R,11S)-6,11-Dimethyl-3-pentyl-1,2,3,4,5,6-hexahydro-2,6-methano-benzo[d]azocin-8-ol] | 7000
CCCCCCCN1CC[C@]2(C)c3cc(O)ccc3CC1[C@H]2C [(6S,11S)-3-Heptyl-6,11-dimethyl-1,2,3,4,5,6-hexahydro-2,6-methano-benzo[d]azocin-8-ol] | 7000
CCN1CC[C@@]2(C)c3cc(O)ccc3CC1[C@H]2C [(6R,11S)-3-Ethyl-6,11-dimethyl-1,2,3,4,5,6-hexahydro-2,6-methano-benzo[d]azocin-8-ol] | 7000
C[C@@H]1C2Cc3ccc(O)cc3[C@]1(C)CCN2C [(6R,11S)-3,6,11-Trimethyl-1,2,3,4,5,6-hexahydro-2,6-methano-benzo[d]azocin-8-ol] | 7000
CCCN1CC[C@@]2(C)c3cc(O)ccc3CC1[C@H]2C [(6R,11S)-6,11-Dimethyl-3-propyl-1,2,3,4,5,6-hexahydro-2,6-methano-benzo[d]azocin-8-ol] | 7000
CCN1CC[C@]2(C)c3cc(O)ccc3CC1[C@@H]2C [(6S,11R)-3-Ethyl-6,11-dimethyl-1,2,3,4,5,6-hexahydro-2,6-methano-benzo[d]azocin-8-ol] | 158
C[C@@H]1C2Cc3ccc(O)cc3[C@]1(C)CCN2 [(6R,11S)-6,11-Dimethyl-1,2,3,4,5,6-hexahydro-2,6-methano-benzo[d]azocin-8-ol] | 7000
C[C@H]1C2Cc3ccc(O)cc3[C@@]1(C)CCN2 [(6S,11R)-6,11-Dimethyl-1,2,3,4,5,6-hexahydro-2,6-methano-benzo[d]azocin-8-ol] | 449

Test: Inhibition against kappa receptor from displacement studies using 1.5 nM [3H]U-69593 in rhesus monkey cortex membrane

SMILES | Ki [nM]
CCCCCCCCCN1CC[C@]2(C)c3cc(O)ccc3CC1[C@@H]2C [(6S,11R)-6,11-Dimethyl-3-nonyl-1,2,3,4,5,6-hexahydro-2,6-methano-benzo[d]azocin-8-ol] | 709
CCCCCN1CC[C@@]2(C)c3cc(O)ccc3CC1[C@H]2C [(6R,11S)-6,11-Dimethyl-3-pentyl-1,2,3,4,5,6-hexahydro-2,6-methano-benzo[d]azocin-8-ol] | 738
CCCCCCCCCCN1CC[C@]2(C)c3cc(O)ccc3CC1[C@H]2C [(6S,11S)-3-Decyl-6,11-dimethyl-1,2,3,4,5,6-hexahydro-2,6-methano-benzo[d]azocin-8-ol] | 2260
CCCCCCCN1CC[C@]2(C)c3cc(O)ccc3CC1[C@H]2C [(6S,11S)-3-Heptyl-6,11-dimethyl-1,2,3,4,5,6-hexahydro-2,6-methano-benzo[d]azocin-8-ol] | 723
CCN1CC[C@@]2(C)c3cc(O)ccc3CC1[C@H]2C [(6R,11S)-3-Ethyl-6,11-dimethyl-1,2,3,4,5,6-hexahydro-2,6-methano-benzo[d]azocin-8-ol] | 3780
C[C@@H]1C2Cc3ccc(O)cc3[C@]1(C)CCN2C [(6R,11S)-3,6,11-Trimethyl-1,2,3,4,5,6-hexahydro-2,6-methano-benzo[d]azocin-8-ol] | 3780
CCCN1CC[C@@]2(C)c3cc(O)ccc3CC1[C@H]2C [(6R,11S)-6,11-Dimethyl-3-propyl-1,2,3,4,5,6-hexahydro-2,6-methano-benzo[d]azocin-8-ol] | 452
CCCCCCN1CC[C@@]2(C)c3cc(O)ccc3CC1[C@H]2C [(6R,11S)-3-Hexyl-6,11-dimethyl-1,2,3,4,5,6-hexahydro-2,6-methano-benzo[d]azocin-8-ol] | 2260
CCN1CC[C@]2(C)c3cc(O)ccc3CC1[C@@H]2C [(6S,11R)-3-Ethyl-6,11-dimethyl-1,2,3,4,5,6-hexahydro-2,6-methano-benzo[d]azocin-8-ol] | 16
C[C@@H]1C2Cc3ccc(O)cc3[C@]1(C)CCN2 [(6R,11S)-6,11-Dimethyl-1,2,3,4,5,6-hexahydro-2,6-methano-benzo[d]azocin-8-ol] | 3780
C[C@H]1C2Cc3ccc(O)cc3[C@@]1(C)CCN2 [(6S,11R)-6,11-Dimethyl-1,2,3,4,5,6-hexahydro-2,6-methano-benzo[d]azocin-8-ol] | 113

Test: Inhibition against mu receptor from displacement studies using 0.5 nM [3H]-DAMGO in rhesus monkey cortex membrane

SMILES | Ki [nM]
CCCCCCCCCN1CC[C@]2(C)c3cc(O)ccc3CC1[C@@H]2C [(6S,11R)-6,11-Dimethyl-3-nonyl-1,2,3,4,5,6-hexahydro-2,6-methano-benzo[d]azocin-8-ol] | 183
CCCCCN1CC[C@@]2(C)c3cc(O)ccc3CC1[C@H]2C [(6R,11S)-6,11-Dimethyl-3-pentyl-1,2,3,4,5,6-hexahydro-2,6-methano-benzo[d]azocin-8-ol] | 776
CCCCCCCCCCN1CC[C@]2(C)c3cc(O)ccc3CC1[C@H]2C [(6S,11S)-3-Decyl-6,11-dimethyl-1,2,3,4,5,6-hexahydro-2,6-methano-benzo[d]azocin-8-ol] | 756
CCCCCCCN1CC[C@]2(C)c3cc(O)ccc3CC1[C@H]2C [(6S,11S)-3-Heptyl-6,11-dimethyl-1,2,3,4,5,6-hexahydro-2,6-methano-benzo[d]azocin-8-ol] | 259
C[C@@H]1C2Cc3ccc(O)cc3[C@]1(C)CCN2C [(6R,11S)-3,6,11-Trimethyl-1,2,3,4,5,6-hexahydro-2,6-methano-benzo[d]azocin-8-ol] | 1380
CCCN1CC[C@@]2(C)c3cc(O)ccc3CC1[C@H]2C [(6R,11S)-6,11-Dimethyl-3-propyl-1,2,3,4,5,6-hexahydro-2,6-methano-benzo[d]azocin-8-ol] | 943
CCCCCCN1CC[C@@]2(C)c3cc(O)ccc3CC1[C@H]2C [(6R,11S)-3-Hexyl-6,11-dimethyl-1,2,3,4,5,6-hexahydro-2,6-methano-benzo[d]azocin-8-ol] | 318
CCN1CC[C@]2(C)c3cc(O)ccc3CC1[C@@H]2C [(6S,11R)-3-Ethyl-6,11-dimethyl-1,2,3,4,5,6-hexahydro-2,6-methano-benzo[d]azocin-8-ol] | 16
C[C@@H]1C2Cc3ccc(O)cc3[C@]1(C)CCN2 [(6R,11S)-6,11-Dimethyl-1,2,3,4,5,6-hexahydro-2,6-methano-benzo[d]azocin-8-ol] | 1720

Test: Inhibition against sigma receptor using displacement of 3 nM [3H]pentazocine in homogenate of guinea pig brain cerebellum

SMILES | Ki [nM]
CCCCCCCCCN1CC[C@]2(C)c3cc(O)ccc3CC1[C@@H]2C [(6S,11R)-6,11-Dimethyl-3-nonyl-1,2,3,4,5,6-hexahydro-2,6-methano-benzo[d]azocin-8-ol] | 32
CCCCCCCCCCN1CC[C@]2(C)c3cc(O)ccc3CC1[C@H]2C [(6S,11S)-3-Decyl-6,11-dimethyl-1,2,3,4,5,6-hexahydro-2,6-methano-benzo[d]azocin-8-ol] | 69
CCCCCCCN1CC[C@]2(C)c3cc(O)ccc3CC1[C@H]2C [(6S,11S)-3-Heptyl-6,11-dimethyl-1,2,3,4,5,6-hexahydro-2,6-methano-benzo[d]azocin-8-ol] | 1.9
CCN1CC[C@@]2(C)c3cc(O)ccc3CC1[C@H]2C [(6R,11S)-3-Ethyl-6,11-dimethyl-1,2,3,4,5,6-hexahydro-2,6-methano-benzo[d]azocin-8-ol] | 1090
C[C@@H]1C2Cc3ccc(O)cc3[C@]1(C)CCN2C [(6R,11S)-3,6,11-Trimethyl-1,2,3,4,5,6-hexahydro-2,6-methano-benzo[d]azocin-8-ol] | 1330
CCCN1CC[C@@]2(C)c3cc(O)ccc3CC1[C@H]2C [(6R,11S)-6,11-Dimethyl-3-propyl-1,2,3,4,5,6-hexahydro-2,6-methano-benzo[d]azocin-8-ol] | 43
CCCCCCN1CC[C@@]2(C)c3cc(O)ccc3CC1[C@H]2C [(6R,11S)-3-Hexyl-6,11-dimethyl-1,2,3,4,5,6-hexahydro-2,6-methano-benzo[d]azocin-8-ol] | 2.3
CCN1CC[C@]2(C)c3cc(O)ccc3CC1[C@@H]2C [(6S,11R)-3-Ethyl-6,11-dimethyl-1,2,3,4,5,6-hexahydro-2,6-methano-benzo[d]azocin-8-ol] | 16600
C[C@@H]1C2Cc3ccc(O)cc3[C@]1(C)CCN2 [(6R,11S)-6,11-Dimethyl-1,2,3,4,5,6-hexahydro-2,6-methano-benzo[d]azocin-8-ol] | 2730
C[C@H]1C2Cc3ccc(O)cc3[C@@]1(C)CCN2 [(6S,11R)-6,11-Dimethyl-1,2,3,4,5,6-hexahydro-2,6-methano-benzo[d]azocin-8-ol] | 6750
